The values that follow come from US20190070140A1, “COMPOSITION COMPRISING PROTECTIN DX AS ACTIVE INGREDIENT FOR PREVENTING OR TREATING HYPERLIPIDEMIA OR FATTY LIVER DISEASE” (Solvit P&F, priority 2017, published 2019).

The nature of assay [1]: Body weight, liver weight and epididymal fat content of HFD mice. The class given is in vivo, mouse. The following applies: PDX i.p. 1 μg/mice/day for 8 weeks, compared to HFD diet mice. How it is done:
(§1) The present study has received the approval of the Institutional Animal Review Committee (Institutional Animal Care and Use Committee in Korea University, Seoul, Korea). The animal experiment was conducted according to the Guide for Care and Use of Laboratory Animals (NH publication, 8th Ed., 2011). A control group and a group of male C57BL/6J(B6) mice at 8 weeks of age were subjected to a normal diet (ND, Brogaarden, Gentofte, Denmark) and a high fat diet (HFD, Research Diets, New Brunswick, N.J., USA) for 8 weeks, respectively. The HFD (high fat diet) group was provided with intra-peritoneal injection of PDX for 8 weeks (1 μg/mice/day). An ethanol injection group was used as a control group. According to the above experimental procedures conducted for 8 weeks, the present inventors measured body weights, daily energy intakes, liver weights and epididymal fat contents, with respect to five mice per group.

Another assay has as its system IRE-1, eIF2α and CHOP. Nature of the assay: Western-blot assay of phosphorylation and expression of ER stress markers in palmitate-treated HepG2 cells. It is filed as cell-based, Human. The following applies: for expression of ER stress markers IRE-1, eIF2α and CHOP: FIG. 2A. How it is done:
Human liver cells, that is, HepG2 cells (ATCC, Manassas, Va., USA) were cultured in high-glucose Dulbecco's modified eagle medium (DMEM, Invitrogen, Carlsbad, Calif., USA), which includes 10% fetal bovine serum (FBS, Invitrogen), 100 units/mL of penicillin and 100 μg/ml of streptomycin. The cells were incubated at 37° C. under a condition of 5% CO2. Mycoplasma was not detected in HepG2 cells. PDX (Cayman Chemical, Ann Arbor, Mich., USA) was dissolved in ethanol. Sodium palmitate (Sigma, St. Louis, Mo., USA) was mixed with 2% BSA (fatty acid free level; Sigma) in DMEM. […] In all experiments, the cells were treated with palmitate-BSA and PDX for 24 hours, while 2% BSA-ethanol was used as a control group. After collecting HepG2 cells, protein was extracted from the cells with a buffer (PRO-PREF; Intron Biotechnology, Seoul, Korea) at 4° C. for 1 hour. A protein sample (35 μg) was applied to 12% SDS-PAGE, transferred to a nitrocellulose film (Amersham Bioscience, Westborough, Mass., USA), detected with a primary antibody, followed by probing with a secondary antibody and another secondary antibody conjugated with horseradish […] (Santa Cruz Biotechnology). The sample was detected by ECL kit. Under 70% comfluency, 0 to 20 nmol/L […] (si)RNA oligonucleotide to ORP150 purchased from Santa Cruz Biotechnology was transfected to inhibit gene expression. Scramble siRNA was used as a control group. 2 or 4 μg of pCMV3-ORP150 (Sino Biological, Beijing, China) was transiently transfected, leading to over-expression of ORP150. pCMV3 empty-vector was used as a control group. According to instruction of the manufacturer, transfection was executed using lipofectamine 2000 (Invitrogen).

A further assay has as its system HFD diet mouse. Nature of the assay: Hepatic steatosis in HFD diet mouse: H&E and Oil-Red-O staining, TG analysis kit. The class given is in vivo. Particulars: HFD mice, PDX i.p. 1 μg/mice/day for 8 weeks. On the procedure:
as §1, with “group.” for “group. According to the above experimental procedures conducted for 8 weeks, the present inventors measured body weights, daily energy intakes, liver weights and epididymal fat contents, with respect to five mice per group.”
(§2) HepG2 cells and a cut section of the liver in a mouse were stained by Oil-Red-O staining method, in order to determine cellular triglyceride such as triglyceride, that is, TG. The liver cells were fixed with 10% formalin for 40 minutes, and then stained with Oil-Red-O solution (Sigma) at 37° C. for 1 hour. A content of Oil-Red-O stained TG was quantified by adding isopropanol to each of the samples. The mixture was gently stirred at 25° C. for 8 minutes. Lastly, 100 μl of isopropanol-extracted sample was analyzed by a spectrophotometer at 510 nm.
Total lipids were extracted using a mixture of 2:1 chloroform:methanol (2:1, v/v). An organic layer was dissolved in 60% methanol immediately after drying the same. The extracted TG was measured by a colormetric TG analysis kit according to instructions of the manufacturer (Biovision, Milpitas, Calif., USA).
The present inventors have assessed PDX effects upon lipid accumulation in a mouse. For this purpose, a liver cut section from a mouse was subjected to histological assay and western-blot assay through H&E staining and Oil-Red-O staining, while TG accumulation was measured using a TG analysis kit.

A further assay concerns HepG2 cells. Nature of the assay: Palmitate-induced TG accumulation in HepG2 cells, Oil-Red-O staining with isopropyl alcohol extraction. It is filed as cell-based, Human. On the procedure:
Human liver cells, that is, HepG2 cells (ATCC, Manassas, Va., USA) were cultured in high-glucose Dulbecco's modified eagle medium (DMEM, Invitrogen, Carlsbad, Calif., USA), which includes 10% fetal bovine serum (FBS, Invitrogen), 100 units/mL of penicillin and 100 μg/ml of streptomycin. The cells were incubated at 37° C. under a condition of 5% CO2.
Mycoplasma was not detected in HepG2 cells. PDX (Cayman Chemical, Ann Arbor, Mich., USA) was dissolved in ethanol. Sodium palmitate (Sigma, St. Louis, Mo., USA) was mixed with 2% BSA (fatty acid free level; Sigma) in DMEM. […] In all experiments, the cells were treated with palmitate-BSA and PDX for 24 hours, while 2% BSA-ethanol was used as a control group.
as §2
In the presence of 200 μM palmitate and PDX (0 to 2 μm), HepG2 cells were subjected to Oil-Red-O staining for 24 hours, while TG accumulation was quantified by isopropyl alcohol extraction.
Further, the present inventors have executed Oil-Red-O staining with respect to palmitate-treated HepG2 cells for 24 hours. TG accumulation was quantified by extraction using isopropyl alcohol.

Consider `CC/C=C\C[C@H](O)/C=C/C=C\C=C\[C@@H](O)C/C=C\C/C=C\CCC(=O)O` [PDX, 10S,17S-dihydroxy-docosa-4Z,7Z,11E,13Z,15E,19Z-hexaeonic acid], for which the body weights result in assay [1] (FIG. 6A) was “significantly reduced”. Further, the liver weights result in assay [1] (FIG. 6C) was “significantly decreased”. The epididymal fat contents entry in assay [1] (FIG. 6D) was “significantly decreased”. In addition, the “expression of ER stress markers IRE-1, eIF2α and CHOP” value is recorded as “increased again” in the assay on IRE-1, eIF2α and CHOP (palmitate + PDX + siORP150 (ORP150 silencing)); “reduced” with IRE-1, eIF2α and CHOP (scramble siRNA + palmitate + PDX). Moreover, in the assay with IRE-1, eIF2α and CHOP (palmitate-induced, 24 hours, FIG. 1C), the “phosphorylation and expression of ER stress markers IRE-1, eIF2α and CHOP” value is “significantly decreased depending upon a dose of PDX”. Also, in the assay on HFD diet mouse (compared to HFD diet group, FIG. 5A left), the “intracellular fat deposit rate (stained liver cut section)” value is reported as “decrease”. Also, the “accumulation of triglyceride in the liver” value in the assay with HFD diet mouse (vs HFD, FIG. 5A) is “considerably reduced”. For the same compound, the “hepatic fibrosis (stained liver cut section)” value in the assay on HFD diet mouse (FIG. 5A left) was “very little hepatic fibrosis”. The “palmitate-induced TG accumulation” value in the assay on HepG2 cells (200 μM palmitate, PDX 0 to 2 μm, 24 hours, FIG. 1A) is “inhibited”; with HepG2 cells (scramble siRNA, PDX administration, FIG. 2B), “inhibited”. Moreover, the “TG accumulation inhibitory effects of PDX” value in the assay on HepG2 cells (palmitate, silencing ORP150, FIG. 2B) is on record as “reduced”.
